Reference: patent EP0545103A1, “Insecticidal, acaricidal and molluscicidal 1-(substituted) thioalkylpyrroles” (priority 1991, dated 1993)

Columns and labels:
[1] = tested on: Heliothis virescens, egg, tobacco budworm; assay: Tobacco budworm egg test, dipped cotton leaf and eggs; type: in vivo; set-up: key: 0: no effect; 10-25% kill; 26-35% kill; 36-45% kill; 46-55% kill; 56-65% kill; 66-75% kill; 76-85% kill; 86-99% kill; 9: 100% kill; conditions: mortality rating after 3 days
Outline: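 Scoring is by mortality counts after 3 days, graded on a rating scale. Tobacco budworm eggs (6-30 h old) on cheesecloth and a young cotton leaf were each dipped about 3 s in the test suspension. Suspensions were made from a 10,000 ppm stock in 35% acetone/water with further water dilutions.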

[2] = tested on: Empoasca abrupta, adult, western potato leafhopper; assay: Western potato leafhopper systemic uptake test; type: in vivo; set-up: key: 0: no effect; 10-25% kill; 26-35% kill; 36-45% kill; 46-55% kill; 56-65% kill; 66-75% kill; 76-85% kill; 86-99% kill; 9: 100% kill; conditions: 100 ppm
Procedure: Empoasca abrupta, adult, western potato leafhopper Systemic Uptake
An emulsion containing 0.1 gm of the test material, 0.2 gm of Emulphor EL-620® emulsifier, 10 mL of acetone and 90 mL of water is prepared and diluted 10-fold with water to give a 100 ppm emulsion. Subsequent 10-fold dilutions are made with water as needed. Sieva limabean plants, with the primary leaves expanded to a length of 7-8 cm, are cut off at least 3 cm above the soil level to avoid contamination with soil bacteria which will cause decay of the stem during the test. The cut stem is placed in the test emulsion and wrapped with a bit of cotton to hold the stem off the bottom of the bottle and to limit evaporation. The treated stem is maintained for 3 days at 27°C to allow the test compound to be taken up into the plant. Following this, one leaf is removed from the plant and placed in a 100 x 10 mm petri dish containing a moist filter paper and about 10 adult leafhoppers as described above. Mortality counts are made after 2 days.
(§1) All of the above tests are rated according to the rating scale shown below.

[3] = tested on: Tetranychus urticae (OP-resistant strain), 2-spotted spider mite; assay: 2-spotted spider mite test, dipped infested limabean plants; type: in vivo; set-up: key: 0: no effect; 10-25% kill; 26-35% kill; 36-45% kill; 46-55% kill; 56-65% kill; 66-75% kill; 76-85% kill; 86-99% kill; 9: 100% kill; conditions: for OP-RESISTANT MITES Egg: mite eggs
Procedure: (§2) Test solutions are prepared by dissolving the test compound in a 35% acetone in water mixture to give a concentration of 10,000 ppm. Subsequent dilutions are made with water as needed.
Tetranychus urticae (OP-resistant strain), 2-spotted spider mite
Sieva limabean plants with primary leaves expanded to 7-8 cm are selected and cut back to one plant per pot. A small piece is cut from an infested leaf taken from the main colony and placed on each leaf of the test plants. This is done about 2 hours before treatment to allow the mites to move over to the test plant and to lay eggs. The size of the cut, infested leaf is varied to obtain about 100 mites per leaf. At the time of test treatment, the piece of leaf used to transfer the mites is removed and discarded. The newly mite-infested plants are dipped in the test solution for 3 seconds with agitation and set in the hood to dry. After 2 days one leaf is removed and mortality counts are made. After 5 days, another leaf is removed and observations are made of mortality of the eggs and/or newly emerged nymphs.
as §1

[4] = tested on: Aphis fabae, mixed instar, bean aphid; assay: Bean aphid spray test on nasturtium; type: in vivo; set-up: key: 0: no effect; 10-25% kill; 26-35% kill; 36-45% kill; 46-55% kill; 56-65% kill; 66-75% kill; 76-85% kill; 86-99% kill; 9: 100% kill; conditions: 100 ppm
Procedure: as §2
Aphis fabae, mixed instar, bean aphid
Pots containing single nasturtium plants (Tropaeolum sp.) about 5 cm tall are infested with about 100-200 aphids one day prior to treatment. Each pot is sprayed with the test solution for 2 revolutions of a 4 rpm turntable in a hood, using a #154 DeVilbiss atomizer. The spray tip is held about 15 cm from the plant and the spray directed so as to give complete coverage of the plants and the aphids. The sprayed pots are set on their sides on white enamel trays and mortality estimates are made after 2 days.
as §1

[5] = tested on: Diabrotic undecimpunctata howardi, 3rd instar southern corn rootworm; assay: Southern corn rootworm soil test; type: in vivo; set-up: key: 0: no effect; 10-25% kill; 26-35% kill; 36-45% kill; 46-55% kill; 56-65% kill; 66-75% kill; 76-85% kill; 86-99% kill; 9: 100% kill; conditions: mortality rating after 6 days
Outline: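 Soil test with ten 3rd instar larvae per jar, mortality read after 6 days and missing larvae counted as dead; scores on a rating scale. Doses were 1.25 and 0.25 mg a.i. per jar, corresponding to roughly 50 and 10 kg/ha, loaded on talc from acetone and mixed into moist soil with millet seed as food.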

[6] = tested on: Empoasca abrupta, adult, western potato leafhopper; assay: Western potato leafhopper contact test, dipped limabean leaf; type: in vivo; set-up: key: 0: no effect; 10-25% kill; 26-35% kill; 36-45% kill; 46-55% kill; 56-65% kill; 66-75% kill; 76-85% kill; 86-99% kill; 9: 100% kill
Procedure: as §2
Empoasca abrupta, adult, western potato leafhopper
A Sieva limabean leaf about 5 cm long is dipped in the test solution for 3 seconds with agitation and placed in a hood to dry. The treated leaf is placed in a 100 x 10 mm petri dish containing a moist filter paper and about 10 adult leafhoppers are added. After 2 days, mortality counts are made.
as §1

[7] = tested on: Spodoptera eridania, 3rd instar larvae, southern armyworm; assay: Southern armyworm 3rd instar test, dipped limabean leaf; type: in vivo; conditions: for ARMYWORM Day 5: rating at 5 days; for ARMYWORM Day 3: rating at 3 days
Outline: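 Ten 3rd instar larvae fed on limabean leaves that had been dipped for 3 s in test solution and dried. Test solutions were diluted in water from a 10,000 ppm stock in 35% acetone/water. Ratings at days 3 and 5 covered death, feeding reduction and abnormal molting.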

[8] = tested on: Spodoptera eridania, 3rd instar larvae, southern armyworm; assay: Southern armyworm systemic uptake (stem systemic) test; type: in vivo; set-up: key: 0: no effect; 10-25% kill; 26-35% kill; 36-45% kill; 46-55% kill; 56-65% kill; 66-75% kill; 76-85% kill; 86-99% kill; 9: 100% kill; conditions: cut stem in emulsion 3 days
[9] = tested on: Spodoptera eridania, 3rd instar larvae, southern armyworm; assay: Southern armyworm 7-day residual test; type: in vivo; conditions: R designates Residual: 7-day residual foliage, concentration not given
Outline: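 Third-instar southern armyworm larvae were exposed to lima bean foliage that had been treated, then held 7 days under greenhouse lamps simulating bright sun for 14 h per day. Treatment solutions were diluted in water from a 10,000 ppm stock in 35% acetone. Results are scale ratings.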

[10] = tested on: Cercospora beticola; assay: In vivo fungicidal activity, Sugarbeet Cercospora (SBC); conditions: rate 400 ppm, rating, averaged
Procedure: (§3) Test compounds are dissolved in acetone and diluted with deionized water containing about 0.05% TWEEN 20®, a polyoxyethylene sorbitan monolaurate surfactant manufactured by Atlas Chemical Industries, to give a concentration of 400 ppm. Subsequent dilutions are made with an 0.05% aqueous solution of TWEEN 20®.
(§4) Host plants are sprayed with test solution, dried and inoculated with fungi. When disease symptom development is optimal, the plants are rated for disease control according to the rating scale shown below. Each test contains inoculated treated plants, inoculated untreated plants and a reference standard.
(§5) When more than one test is run, the data are averaged.

[11] = tested on: Puccinia recondita, tritici; assay: In vivo fungicidal activity, Wheat Leaf Rust (WLR); conditions: rate 400 ppm, rating, averaged
Procedure: as §3, §4, §5

[12] = tested on: Erysiphe graminis, tritici; assay: In vivo fungicidal activity, Wheat Powdery Mildew (WPM); conditions: rating, averaged
Procedure: as §3, §4, §5

[13] = tested on: Plasmopara viticola; assay: In vivo fungicidal activity, Grape Downy Mildew (GDM); conditions: rate 400 ppm, rating, averaged
Procedure: as §3, §4, §5

[14] = tested on: Venturia inaequalis; assay: In vivo fungicidal activity, Apple Scab (AS); conditions: rate 400 ppm, host plants sprayed then inoculated, rating, averaged
Procedure: as §3, §4, §5

[15] = tested on: Heliothis virescens, 3rd instar tobacco budworm; assay: Tobacco budworm 3rd instar test, dipped cotton cotyledons; type: in vivo; set-up: key: 0: no effect; 10-25% kill; 26-35% kill; 36-45% kill; 46-55% kill; 56-65% kill; 66-75% kill; 76-85% kill; 86-99% kill; 9: 100% kill; conditions: mortality rating after 3 days
Procedure: as §2
Heliothis virescens, 3rd instar tobacco budworm
Cotton cotyledons are dipped in the test solution and allowed to dry in a hood. When dry, each is cut into quarters and ten sections are placed individually in 30 mL plastic medicine cups containing a 5-7mm long piece of damp dental wick. One 3rd instar caterpillar is added to each cup and the cup is sealed with MYLAR® film. Treatments are maintained for 3 days before a mortality count and observation of reduction in feeding damage are made.
as §1

[16] = systemic uptake, rating scale 0-9
[17] = 300 ppm, mite nymphs, rating scale 0-9
[18] = 100 ppm, contact, rating scale 0-9

Which results are given for N#Cc1c(Cl)c(C(F)(F)F)n(CSC(=N)N)c1-c1ccc(Cl)cc1 [Example 3]?
TOBACCO BUDWORM Egg ([1]; 100 ppm): 0; TOBACCO BUDWORM Egg ([1]; 1000 ppm): 5 (56-65% kill); LEAFHOPPER Systemic ([2]; cut stem in emulsion 3 days, mortality rating after 2 days): 0; OP-RESISTANT MITES Nymph ([3]; 10 ppm, rating after 5 days): 0; OP-RESISTANT MITES Nymph ([3]; 300 ppm, rating after 5 days): 9 (100% kill); APHIDS ([4]; spray, mortality rating after 2 days): 0; SOUTHERN CORN ROOTWORM ([5]; 1 (ppm as headed)): 0; SOUTHERN CORN ROOTWORM ([5]; 10 (ppm as headed)): 0; SOUTHERN CORN ROOTWORM ([5]; 50 (ppm as headed)): 9 (100% kill); LEAFHOPPER Contact ([6]; 10 ppm, mortality rating after 2 days): 9 (100% kill); LEAFHOPPER Contact ([6]; 100 ppm, mortality rating after 2 days): 9 (100% kill); ARMYWORM Day 5 ([7]; 10 ppm): 9 (100% kill); ARMYWORM Day 5 ([7]; 100 ppm): 9 (100% kill); ARMYWORM Day 5 ([7]; 1000 ppm): 9 (100% kill); ARMYWORM Stem Sys [8]: 0

Which results are given for CN(C)C(=S)SCn1c(-c2ccc(Cl)c(Cl)c2)c(Br)c(C(F)(F)F)c1C(F)(F)F [Example 33]?
TOBACCO BUDWORM Egg ([1]; 1000 ppm): 0; LEAFHOPPER Systemic [2, 16]: 0; OP-RESISTANT MITES Adult ([3]; 10 ppm, rating scale 0-9): 0; OP-RESISTANT MITES Egg ([3]; 10 ppm, rating scale 0-9): 0; OP-RESISTANT MITES Nymph ([3]; 10 ppm, mite nymphs, rating scale 0-9): 0; OP-RESISTANT MITES Adult ([3]; 100 ppm, rating scale 0-9): 0; OP-RESISTANT MITES Egg ([3]; 100 ppm, rating scale 0-9): 8 (86-99% kill); OP-RESISTANT MITES Nymph ([3]; 100 ppm, mite nymphs, rating scale 0-9): 0; OP-RESISTANT MITES Adult ([3]; 300 ppm, rating scale 0-9): 7 (76-85% kill); OP-RESISTANT MITES Egg ([3]; 300 ppm, rating scale 0-9): 0; OP-RESISTANT MITES Nymph [3, 17]: 0; APHIDS ([4]; rating scale 0-9): 0; LEAFHOPPER Contact ([6]; 10 ppm, contact, rating scale 0-9): 0; LEAFHOPPER Contact [6, 18]: 8 (86-99% kill); ARMYWORM Day 3 R ([9]; rating at 3 days): 9 (100% kill); ARMYWORM Day 5 R ([9]; rating at 5 days): 9 (100% kill); ARMYWORM Day 3 ([7]; 10 ppm): 9 (100% kill); ARMYWORM Day 5 ([7]; 10 ppm): 9 (100% kill); ARMYWORM Day 3 ([7]; 100 ppm): 9 (100% kill); ARMYWORM Day 5 ([7]; 100 ppm): 9 (100% kill); ARMYWORM Day 3 ([7]; 1000 ppm): 9 (100% kill); ARMYWORM Day 5 ([7]; 1000 ppm): 9 (100% kill); ARMYWORM Stem Sys [8]: 0

CC(C)OP(=S)(OC(C)C)SCn1c(Br)c(Br)c(C#N)c1Br [O,O-diisopropyl S-(2,3,5-tribromo-4-cyanopyrrole-1-yl)methyl ester phosphorodithioic acid] was tested. Which “Disease Control SBC” value [10] did it give?
Its value is 0 (0).

And the “Disease Control WLR” value [11]?
Its value is 0 (0).

What about the “Disease Control WPM” value ([12]; rate 25 ppm) of the same compound?
Its value is 0 (0).

What about the “Disease Control WPM” value ([12]; rate 100 ppm) of the same compound?
Its value is 4.0.

And the “Disease Control WPM” value ([12]; rate 400 ppm)?
The value was 7.0.

And the “Disease Control GDM” value [13]?
The value was 0 (0).

And the “Disease Control AS” value [14]?
The value was 0 (0).

CC(=O)SCn1c(Br)c(Br)c(C#N)c1Br [Example 34] was tested. Which “TOBACCO BUDWORM Egg” value ([1]; 1000 ppm) did it give?
Its value is 8 (86-99% kill).

And the “LEAFHOPPER Systemic” value [2, 16]?
Its value is 0.

And the “TOBACCO BUDWORM 3rd Instar” value ([15]; 100 ppm)?
Its value is 0.

What about the “TOBACCO BUDWORM 3rd Instar” value ([15]; 1000 ppm) of the same compound?
The value was 9 (100% kill).

And the “OP-RESISTANT MITES Adult” value ([3]; 300 ppm, rating scale 0-9)?
Its value is 0.

What about the “OP-RESISTANT MITES Egg” value ([3]; 300 ppm, rating scale 0-9) of the same compound?
The value was 0.

What about the “OP-RESISTANT MITES Nymph” value [3, 17] of the same compound?
Its value is 0.

And the APHIDS ([4]; rating scale 0-9)?
The APHIDS was 8 (86-99% kill).

What about the “SOUTHERN CORN ROOTWORM” value ([5]; 50 (ppm as headed)) of the same compound?
Its value is 0.

What about the “LEAFHOPPER Contact” value [6, 18] of the same compound?
Its value is 0.

And the “ARMYWORM Stem Sys” value [8]?
Its value is 0.
